Source: paper PMC8325119, “A Novel Class of Functionalized Synthetic Fluoroquinolones with Dual Antiproliferative - Antimicrobial Capacities” (Asian Pacific Journal of Cancer Prevention : APJCP, 2021)
Converted amounts (≈) assume the structure as drawn. “And” between values parts separate entries of the source, which are not always exact repeats. Identical values can stand only once. Like-named read-outs stand apart in the source and are kept apart here.

Legend:
A549 cell line = experiment: SRB cytotoxicity assay, A549 lung cancer cell line; settings: Homo sapiens, A549, 72 h, read-out: Cytotoxicity IC50 value, A549 cell line
A375.S2 cell line = experiment: SRB cytotoxicity assay, A375.S2 melanoma cell line; settings: Homo sapiens, A375-S2, 72 h, read-out: Cytotoxicity IC50 value, A375.S2 cell line
MCF7 cell line = experiment: SRB cytotoxicity assay, MCF7 breast cancer cell line; settings: Homo sapiens, MCF7, 72 h, read-out: Cytotoxicity IC50 value, MCF7 cell line
HELA cell line = experiment: SRB cytotoxicity assay, HELA cervical cancer cell line; settings: Homo sapiens, HeLa, 72 h
K562 cell line = experiment: SRB cytotoxicity assay, K562 leukaemia cell line; settings: Homo sapiens, K562, 72 h
PANC 1 cell line = experiment: SRB cytotoxicity assay, PANC 1 pancreatic cancer cell line; settings: Homo sapiens, PANC-1, 72 h, read-out: Cytotoxicity IC50 value, PANC 1 cell line
T47D cell line = experiment: cells; settings: Homo sapiens, T47D, 72 h, read-out: Cytotoxicity IC50 value, T47D cell line
Outline: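 Cells were cultured in DMEM supplemented with FBS, HEPES buffer, L-glutamine and antibiotics, then exposed to compounds. Viability loss was read by SRB staining to give IC50.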

PDL Fibroblasts = experiment: SRB cytotoxicity on normal periodontal ligament fibroblasts, selective cytotoxicity; assay type: cell-based, Human; settings: for IC50: Homo sapiens, Fibroblast, normal fibroblasts, SRB, 72 h, mean ± SD; for Selectivity index SI (K562): IC50 on PDL fibroblasts divided by IC50 on K562
Outline: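 Human periodontal ligament fibroblasts, a primary normal culture, tested by SRB colorimetric assay for cell viability. Selectivity ratio = IC50 on normal fibroblasts divided by IC50 on the pathological cell line.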

[1] = tested on: Staphylococcus aureus (S. aureus) ATCC 6538; experiment: Quantitative antimicrobial assessment (MIC) against S. aureus; assay type: cell-based; settings: for MIC potency compared with ciprofloxacin, S. aureus: in words
[2] = tested on: Candida albicans (C. albicans) ATCC 1023; experiment: Quantitative antimycotic assessment (MIC) against C. albicans; assay type: cell-based; settings: in words
HCT116 = tested on: HCT116; design: method as in earlier work; settings: colon cancer cells, Figure 1; ref Arabiyat et al. 2016a,b; 2017; Alabsi et al. 2018; Jumah 2018; AlShahrabi et al., 2020; read-out: IC50 against HCT116; cited from earlier work
SW620 = tested on: SW620; design: method as in earlier work; settings: colon cancer cells, Figure 1; ref Arabiyat et al. 2016a,b; 2017; Alabsi et al. 2018; Jumah 2018; AlShahrabi et al., 2020; read-out: IC50 against SW620; cited from earlier work
[3] = read-out: Cytotoxicity IC50 value, HELA cell line, SRB, 72 h, 0.1-200 μg/mL range, mean ± SD, value in brackets
[4] = read-out: Cytotoxicity IC50 value, HELA cell line, SRB, 72 h, 0.1-200 μg/mL range, mean ± SD, NI = lack of cytotoxicity in range
[5] = read-out: Cytotoxicity IC50 value, K562 cell line, SRB, 72 h, 0.1-200 μg/mL range, mean ± SD, value in brackets
[6] = read-out: Cytotoxicity IC50 value, K562 cell line, SRB, 72 h, 0.1-200 μg/mL range, mean ± SD, NI = lack of cytotoxicity in range
[7] = 0.1-200 μg/mL range, NI = lack of cytotoxicity in range

| Compound | IC50 (A549 cell line) | IC50 (A375.S2 cell line) | IC50 (MCF7 cell line) | IC50 (HELA cell line; [3]) | IC50 (HELA cell line; [4]) | IC50 (K562 cell line; [5]) | IC50 (K562 cell line; [6]) | IC50 (PANC 1 cell line) | IC50 (T47D cell line) | IC50 (PDL Fibroblasts; [7]) | IC50 (PDL Fibroblasts; value in brackets) | Selectivity index SI (K562) (PDL Fibroblasts) | MIC ([1]; Staphylococcus aureus, ATCC6538, Gram positive, ATCC 6538) | MIC potency compared with ciprofloxacin, S. aureus [1] | Antimycotic MIC potency compared with fluconazole, C. albicans [2] | Selectivity index SI (MCF7) (PDL Fibroblasts; IC50 on PDL fibroblasts divided by IC50 on MCF7) | IC50 (HCT116) | IC50 (SW620) |
| --- | --- | --- | --- | --- | --- | --- | --- | --- | --- | --- | --- | --- | --- | --- | --- | --- | --- | --- |
| CCCCc1ccc(Nc2c(F)cc3c(=O)c(C(=O)O)cn(C4CC4)c3c2N)cc1 [4e, 8-Amino-1-cyclopropyl-6-fluoro-7-(4-butyl-phenylamino)-4-oxo-1,4-dihydro-quinoline-3-carboxylic acid] | 25.1 µM and 10.3 µg/mL | 79.2 µM and 32.4 µg/mL | 107 µM and 44 µg/mL | 27.6 µg/mL | 67.3 ± 6.64 µM | 0.002 µg/mL | 0.005 ± 0.0009 µM | 20.8 µM and 8.5 µg/mL | 44.1 µM and 18 µg/mL | 43 ± 3.02 µM | 18.9 µg/mL | 8592 | 0.32 µM (≈ 0.131 µg/mL) | significantly more potent than ciprofloxacin | more potent than antimycotic flucanozole | – | – | – |
| CCCCc1ccc(-n2nnc3c4c(cc(F)c32)c(=O)c(C(=O)O)cn4C2CC2)cc1 [5e, 9-cyclopropyl-4-fluoro-3-(4-butyl-phenyl)-6-oxo-6,9-dihydro-3H-[1,2,3] triazolo[4,5-h]quinoline-7-carboxylic acid] | 181 µM and 76 µg/mL | 103 µM and 43.1 µg/mL | 105 µM and 44.2 µg/mL | 153 µg/mL | 364 ± 22.8 µM | 20.6 µg/mL | 49 ± 7.2 µM | 87.1 µM and 36.5 µg/mL | 97.6 µM and 41 µg/mL | 72.6 ± 3.56 µM | 30.4 µg/mL | 1.48 | – | – | more potent than antimycotic flucanozole | – | – | – |
| CCn1cc(C(=O)O)c(=O)c2cc(F)c3c(nnn3-c3ccc(OC)cc3OC)c21 [13c, 3-(2,4-dimethoxy-phenyl)-9-ethyl-4-fluoro-6-oxo-6,9-dihydro-3H-[1,2,3] triazolo[4,5-h]quinoline-7-carboxylic acid] | 662 µM and 272 µg/mL | 487 µM and 201 µg/mL | 4.15 µM and 1.71 µg/mL | 179 µg/mL | 435 ± 71.7 µM | 28.2 µg/mL | 68.7 ± 8.04 µM | 138 µM and 56.6 µg/mL | 182 µM and 74.7 µg/mL | 172 ± 17.8 µM | 70.6 µg/mL | – | – | significantly more potent than ciprofloxacin | – | 41.35 | – | – |
| CCn1cc(C(=O)O)c(=O)c2cc(F)c(Nc3ccc(Cl)cc3)c(N)c21 [A (X =Cl)] | – | – | – | – | – | – | – | – | – | – | – | – | – | – | – | – | 3.5 µM | 11.7 µM |
